Patent US20090176762A1, “JNK Inhibitors for Treatment of Skin Diseases” (LABORATOIRES SERONO SA, priority 2006, published 2009)

System: DNFB-induced ear swelling
Experiment: Contact hypersensitivity model in mice (CHS), DNFB-induced ear swelling
Type: in vivo
Details: 30 mg/kg p.o., 30 minutes before challenge; DNFB-sensitized Balb/C mice; p<0.05 vs sensitized; FIG. 4
Experimental: Balb/C female mice of about 8-12 weeks of age (18-22 g b.w.) were used for the Contact Hypersensitivity model. They were from Charles River Italia (Calco, Italy) and housed under the following constant environmental conditions: temperature 22° C.±2, relative humidity 55%±10, 15-20 air changes per hour (filtered on HEPA 99.99%) and artificial light with a 12-hour circadian cycle (7 a.m.-7 p.m.). All in vivo studies were performed according to the European Council Directive 86/609/EEC and the Italian Ministry guidelines for the care and use of experimental animals (decree #116/92). All the experimental protocols were authorized by the Italian Ministry of Health.
All chemicals were purchased from Sigma-Aldrich (St. Louis, Mo., USA) unless otherwise specified. […]
For the induction of CHS, 8-12 weeks old Balb/C mice, were sensitized by applying once a sensitizing solution of 35 μl of 0.5% DNFB in acetone/olive oil (4:1) on the shaved back. […] Ear thickness was monitored using a caliper at day 0, at day 5 (4 h, 8 h), at day 6 (24 h) and at day 7 (48 h). […] Ear thickness of both ears was measured at three point each, ear swelling was evaluated according to the following formula: […]
All values in the text and figures are presented as mean±SEM of (n) independent experiments. All data were analysed by one-way ANOVA followed by Tukey test. […]

N#CC(c1ccnc(OCc2ccc(CN3CCOCC3)cc2)n1)c1nc2ccccc2s1 (stereo not shown) [JNK inhibitor, 1,3-benzothiazol-2-yl(2-{[4-(morpholin-4-ylmethyl)benzyl]oxy}pyrimidin-4-yl)acetonitrile]
ear swelling: significantly reduced ear swelling
